In article PMC6667205, “Antitumor activity of novel pyrazole-based small molecular inhibitors of the STAT3 pathway in patient derived high grade glioma cells” (PLoS ONE, 2019):

Molecular target: T1, STAT3 (Homo sapiens, UniProt P40763)
T1 construct: GST-STAT3
Assay: TR-FRET displacement of fluorescent phosphopeptide (5-FAM-G(pY)LPQTVC-NH2) from GST-STAT3
Assay type: binding

T1 sequence (P40763 2-770): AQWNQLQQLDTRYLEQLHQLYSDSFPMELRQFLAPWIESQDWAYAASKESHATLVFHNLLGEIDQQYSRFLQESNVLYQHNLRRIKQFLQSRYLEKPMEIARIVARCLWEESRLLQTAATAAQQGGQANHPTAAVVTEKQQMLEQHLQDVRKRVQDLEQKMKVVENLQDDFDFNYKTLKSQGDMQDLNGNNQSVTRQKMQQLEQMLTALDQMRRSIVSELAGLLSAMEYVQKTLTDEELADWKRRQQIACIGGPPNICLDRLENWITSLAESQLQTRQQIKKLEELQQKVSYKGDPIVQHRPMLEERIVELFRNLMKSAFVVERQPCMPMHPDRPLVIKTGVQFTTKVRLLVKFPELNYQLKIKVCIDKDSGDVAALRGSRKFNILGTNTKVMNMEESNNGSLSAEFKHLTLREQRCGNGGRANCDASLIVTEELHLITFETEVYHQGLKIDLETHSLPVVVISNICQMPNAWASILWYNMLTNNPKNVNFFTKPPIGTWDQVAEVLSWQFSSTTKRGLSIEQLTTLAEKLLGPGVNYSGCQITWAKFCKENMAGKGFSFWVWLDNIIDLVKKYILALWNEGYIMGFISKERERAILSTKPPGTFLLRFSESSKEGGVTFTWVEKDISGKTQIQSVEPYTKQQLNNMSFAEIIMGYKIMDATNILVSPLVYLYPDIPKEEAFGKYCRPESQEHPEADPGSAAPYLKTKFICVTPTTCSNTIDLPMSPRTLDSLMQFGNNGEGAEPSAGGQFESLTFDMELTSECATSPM

Work on S3I-1757 yielded an IC50 of 62.1 ± 6.1 µM.
